Data: ChEMBL document CHEMBL3525924, “Cytochrome P450 3A-mediated microsomal biotransformation of 1α,25-dihydroxyvitamin D3 in mouse and human liver: drug-related induction and inhibition of catabolism” (Drug Metab Dispos, 2012)

What was measured:
Type in all cases: ADME
[1] = Drug metabolism in CD1 mouse liver microsomes assessed as metabolite formation at 20 uM after 30 mins by LC/MS analysis in presence of NADPH and CYP2D inhibitor quinine; settings: 0.5 h
[2] = Drug metabolism in CD1 mouse liver microsomes assessed as metabolite formation at 20 uM after 30 mins by LC/MS analysis in presence of NADPH and CYP2C inhibitor sulfaphenazole; settings: 0.5 h
[3] = Drug metabolism in dexamethasone treated CD1 mouse liver microsomes assessed as metabolite formation at 20 uM after 30 mins by LC/MS analysis in presence of NADPH and CYP2E inhibitor di-ethyldithiocarbamate; settings: 0.5 h
[4] = Drug metabolism in prednisone treated CD1 mouse liver microsomes assessed as metabolite formation at 20 uM after 30 mins by LC/MS analysis in presence of NADPH and CYP2A inhibitor 8-methoxypsoralen; settings: 0.5 h
[5] = Drug metabolism in prednisone treated CD1 mouse liver microsomes assessed as 1alpha,23R,25(OH)3D3 metabolite formation at 20 uM after 30 mins by LC/MS analysis in presence of NADPH; settings: 0.5 h
[6] = Drug metabolism in dexamethasone treated CD1 mouse liver microsomes assessed as metabolite formation at 20 uM after 30 mins by LC/MS analysis in presence of NADPH and CYP1A2 inhibitor furafyline; settings: 0.5 h
[7] = Drug metabolism in prednisone treated CD1 mouse liver microsomes assessed as 1alpha,24R,25(OH)3D3 metabolite formation at 20 uM after 30 mins by LC/MS analysis in presence of NADPH; settings: 0.5 h
[8] = Drug metabolism in prednisone treated CD1 mouse liver microsomes assessed as depletion of parent compound at 1 uM after 30 mins by LC/MS analysis in presence of NADPH; settings: 0.5 h
[9] = Drug metabolism in CD1 mouse liver microsomes assessed as metabolite formation at 20 uM after 30 mins by LC/MS analysis in presence of NADPH and CYP2A inhibitor 8-methoxypsoralen; settings: 0.5 h
[10] = Drug metabolism in prednisone treated CD1 mouse liver microsomes assessed as 1alpha,23S,25(OH)3D3 metabolite formation at 20 uM after 30 mins by LC/MS analysis in presence of NADPH; settings: 0.5 h
[11] = Drug metabolism in prednisone treated CD1 mouse liver microsomes assessed as metabolite formation at 20 uM after 30 mins by LC/MS analysis in presence of NADPH and CYP2C inhibitor sulfaphenazole; settings: 0.5 h
[12] = Drug metabolism in prednisone treated CD1 mouse liver microsomes assessed as metabolite formation at 20 uM after 30 mins by LC/MS analysis in presence of NADPH and CYP2D inhibitor quinine; settings: 0.5 h
[13] = Drug metabolism in CD1 mouse liver microsomes assessed as metabolite formation at 20 uM after 30 mins by LC/MS analysis in presence of NADPH and CYP2E inhibitor di-ethyldithiocarbamate; settings: 0.5 h
[14] = system: Liver microsome; assay: Drug metabolism in human liver microsomes assessed as metabolite formation at 20 uM after 30 mins by LC/MS analysis in presence of NADPH and tamoxifen; settings: 0.5 h
[15] = Drug metabolism in dexamethasone treated CD1 mouse liver microsomes assessed as depletion of parent compound at 1 uM after 30 mins by LC/MS analysis in presence of NADPH; settings: liver microsomes from dexamethasone-treated mice, read-out: Drug metabolism
[16] = Drug metabolism in dexamethasone treated CD1 mouse liver microsomes assessed as metabolite formation at 20 uM after 30 mins by LC/MS analysis in presence of NADPH and CYP450 inhibitor SKF525A; settings: 0.5 h
[17] = Drug metabolism in CD1 mouse liver microsomes assessed as metabolite formation at 20 uM after 30 mins by LC/MS analysis in presence of NADPH and CYP1A2 inhibitor furafyline; settings: 0.5 h
[18] = Drug metabolism in prednisone treated CD1 mouse liver microsomes assessed as metabolite formation at 20 uM after 30 mins by LC/MS analysis in presence of NADPH and CYP1A2 inhibitor furafyline; settings: 0.5 h
[19] = Drug metabolism in prednisone treated CD1 mouse liver microsomes assessed as 1alpha,24S,25(OH)3D3 metabolite formation at 20 uM after 30 mins by LC/MS analysis in presence of NADPH; settings: 0.5 h
[20] = Drug metabolism in dexamethasone treated CD1 mouse liver microsomes assessed as metabolite formation at 20 uM after 30 mins by LC/MS analysis in presence of NADPH and CYP1A1 inhibitor alpha-naphthoflavone; settings: 0.5 h
[21] = Drug metabolism in CD1 mouse liver microsomes assessed as metabolite formation at 20 uM after 30 mins by LC/MS analysis in presence of NADPH and CYP1A1 inhibitor alpha-naphthoflavone; settings: 0.5 h
[22] = Drug metabolism in CD1 mouse liver microsomes assessed as depletion of parent compound at 1 uM after 30 mins by LC/MS analysis in presence of NADPH; settings: 0.5 h
[23] = system: Liver microsome; assay: Drug metabolism in human liver microsomes assessed as assessed as metabolite formation at 20 uM after 30 mins by LC/MS analysis in presence of NADPH; settings: 0.5 h
[24] = Drug metabolism in dexamethasone treated CD1 mouse liver microsomes assessed as 1alpha,23R,25(OH)3D3 metabolite formation at 20 uM after 30 mins by LC/MS analysis in presence of NADPH; settings: 0.5 h
[25] = Drug metabolism in dexamethasone treated CD1 mouse liver microsomes assessed as metabolite formation at 20 uM after 30 mins by LC/MS analysis in presence of NADPH and CYP2C inhibitor sulfaphenazole; settings: 0.5 h
[26] = Drug metabolism in prednisone treated CD1 mouse liver microsomes assessed as metabolite formation at 20 uM after 30 mins by LC/MS analysis in presence of NADPH and CYP2B inhibitor orphenadrine; settings: 0.5 h
[27] = Drug metabolism in dexamethasone treated CD1 mouse liver microsomes assessed as metabolite formation at 20 uM after 30 mins by LC/MS analysis in presence of NADPH and CYP2B inhibitor orphenadrine; settings: 0.5 h
[28] = Drug metabolism in CD1 mouse liver microsomes assessed as metabolite formation at 20 uM after 30 mins by LC/MS analysis in presence of NADPH and CYP450 inhibitor SKF525A; settings: 0.5 h
[29] = Drug metabolism in prednisone treated CD1 mouse liver microsomes assessed as metabolite formation at 20 uM after 30 mins by LC/MS analysis in presence of NADPH and CYP2E inhibitor di-ethyldithiocarbamate; settings: 0.5 h
[30] = Drug metabolism in dexamethasone treated CD1 mouse liver microsomes assessed as 1alpha,24S,25(OH)3D3 metabolite formation at 20 uM after 30 mins by LC/MS analysis in presence of NADPH; settings: 0.5 h
[31] = Drug metabolism in prednisone treated CD1 mouse liver microsomes assessed as metabolite formation at 20 uM after 30 mins by LC/MS analysis in presence of NADPH and CYP1A1 inhibitor alpha-naphthoflavone; settings: 0.5 h
[32] = system: Liver microsome; assay: Drug metabolism in human liver microsomes assessed as metabolite formation at 20 uM after 30 mins by LC/MS analysis in presence of NADPH and paclitaxel; settings: 0.5 h
[33] = Drug metabolism in CD1 mouse liver microsomes assessed as metabolite formation at 20 uM after 30 mins by LC/MS analysis in presence of NADPH and CYP2B inhibitor orphenadrine; settings: 0.5 h
[34] = system: Liver microsome; assay: Drug metabolism in human liver microsomes assessed as metabolite formation at 20 uM after 30 mins by LC/MS analysis in presence of NADPH and ritonavir; settings: 0.5 h
[35] = Drug metabolism in dexamethasone treated CD1 mouse liver microsomes assessed as metabolite formation at 20 uM after 30 mins by LC/MS analysis in presence of NADPH and CYP2D inhibitor quinine; settings: 0.5 h
[36] = system: Liver microsome; assay: Drug metabolism in human liver microsomes assessed as metabolite formation at 20 uM after 30 mins by LC/MS analysis in presence of NADPH and ketoconazole; settings: 0.5 h
[37] = Drug metabolism in dexamethasone treated CD1 mouse liver microsomes assessed as metabolite formation at 20 uM after 30 mins by LC/MS analysis in presence of NADPH and CYP2A inhibitor 8-methoxypsoralen; settings: 0.5 h
[38] = Drug metabolism in prednisone treated CD1 mouse liver microsomes assessed as metabolite formation at 20 uM after 30 mins by LC/MS analysis in presence of NADPH and CYP450 inhibitor SKF525A; settings: 0.5 h
[39] = system: Liver microsome; assay: Drug metabolism in human liver microsomes assessed as metabolite formation at 20 uM after 30 mins by LC/MS analysis in presence of NADPH and docetaxel; settings: 0.5 h

For `C=C1/C(=C\C=C2/CCC[C@]3(C)[C@@H]([C@H](C)CCCC(C)(C)O)CC[C@@H]23)C[C@@H](O)C[C@@H]1O` [CALCITRIOL], the Drug metabolism [1] was “metabolite_detected”, the Drug metabolism [2] was “metabolite_detected” and the Drug metabolism [3] was “metabolite_detected”. The Drug metabolism [4] was “metabolite_detected”, the Drug metabolism [5] was “metabolite_detected” and the Drug metabolism [6] was “metabolite_detected”. The Drug metabolism [7] was “metabolite_detected”, the Drug metabolism [8] was “metabolite_not_detected” and the Drug metabolism [9] was “metabolite_detected”. For the same molecule, the Drug metabolism [10] was “metabolite_detected”, the Drug metabolism [11] was “metabolite_detected” and the Drug metabolism [12] was “metabolite_detected”. The Drug metabolism [13] was “metabolite_detected”, the Drug metabolism [14] was “metabolite_not_detected” and the metabolised at 0.5 h, 1 µM [15] was 70%. The Drug metabolism [16] was “metabolite_not_detected”, the Drug metabolism [17] was “metabolite_detected” and the Drug metabolism [18] was “metabolite_detected”. The Drug metabolism [19] was “metabolite_detected”, the Drug metabolism [20] was “metabolite_detected” and the Drug metabolism [21] was “metabolite_detected”. The Drug metabolism [22] was “metabolite_not_detected”, the Drug metabolism [23] was “metabolite_detected” and the Drug metabolism [24] was “metabolite_detected”. The Drug metabolism [25] was “metabolite_detected”, the Drug metabolism [26] was “metabolite_detected” and the Drug metabolism [27] was “metabolite_detected”. For the same molecule, the Drug metabolism [28] was “metabolite_not_detected”, the Drug metabolism [29] was “metabolite_detected” and the Drug metabolism [30] was “metabolite_detected”. The Drug metabolism [31] was “metabolite_detected”, the Drug metabolism [32] was “metabolite_not_detected” and the Drug metabolism [33] was “metabolite_detected”. The Drug metabolism [34] was “metabolite_not_detected”, the Drug metabolism [35] was “metabolite_detected” and the Drug metabolism [36] was “metabolite_not_detected”. The Drug metabolism [37] was “metabolite_detected”, the Drug metabolism [38] was “metabolite_not_detected” and the Drug metabolism [39] was “metabolite_not_detected”.
